Measured values from patent publication US20250221967A1, “COMPOSITIONS AND METHODS FOR THE TREATMENT OF CANCER AND OTHER PROLIFERATIVE DISEASES” (THE WISTAR INSTITUTE OF ANATOMY AND BIOLOGY, priority 2022, published 2025).
Entries after “also recorded” stand apart in the source; their conditions may differ. Blank lines part the entries; values can stand above or below the compound they belong to.

What was measured:
[1] = target: T1, Rb-NT (380-785) (Homo sapiens, UniProt P06400); assay: Inhibition of AP-8-239 binding to Rb-NT (380-785); conditions: for Inhibition of AP-8-239 binding Rb-NT (380-785) Top: top of inhibition curve
T1 construct: Rb-NT (380-785)
T1 sequence (P06400 380-785): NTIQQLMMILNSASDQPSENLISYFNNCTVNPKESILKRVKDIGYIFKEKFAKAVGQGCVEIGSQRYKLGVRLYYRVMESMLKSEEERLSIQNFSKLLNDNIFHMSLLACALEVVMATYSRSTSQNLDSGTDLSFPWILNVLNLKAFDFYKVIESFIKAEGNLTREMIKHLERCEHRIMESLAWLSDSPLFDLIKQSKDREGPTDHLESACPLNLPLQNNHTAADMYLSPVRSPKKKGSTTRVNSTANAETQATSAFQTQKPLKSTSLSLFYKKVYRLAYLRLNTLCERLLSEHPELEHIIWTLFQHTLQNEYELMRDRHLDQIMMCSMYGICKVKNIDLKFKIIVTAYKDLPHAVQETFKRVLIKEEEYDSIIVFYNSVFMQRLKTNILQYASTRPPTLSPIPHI

[2] = target: T2, HDAC1 binding Rb-NT (380-785) (Homo sapiens, UniProt P06400); assay: Inhibition of HDAC1 binding to Rb-NT (380-785); conditions: for Inhibition of HDAC1 binding Rb-NT (380-785) Top: top of inhibition curve
T2 construct: Rb-NT (380-785)
T2 sequence (P06400 380-785): T1 sequence (P06400 380-785)
Experimental: Additionally, the binding of different proteins was evaluated. The binding of E7, E2F1, MDM2, and HDAC1 were evaluated to Rb fragments. The compounds tested herein where shown inhibit HDAC1 binding to the Rb fragments in the LxCxE binding pocket.

[3] = target: T3, Rb protein (Homo sapiens, UniProt P06400); assay: Iodoacetamide capping of Cys residues of compound-treated Rb protein, MALDI-MS; conditions: for # of CH2CONH2: RB + compound + Iodoacetamide, RB + DMSO control gives 8; for Cys residues masked from reacting with the iodoacetamide: Rb protein treated with compound, then iodoacetamide
T3 sequence (P06400 380-785 limits assumed): T1 sequence (P06400 380-785)
Experimental: Further studies were conducted to evaluate the binding of the compounds to the Rb protein. Using MS, the […] that had been treated with excess amounts of the compounds were then capped with iodoacetamide. […] Furthermore, there was a significant reduction in MS/MS sequencing events. […] One explanation is that the compound activates Cys706 for nucleophilic attack from Cys712.
In order to confirm that, the Rb protein was treated with iodoacetamide to cap the Cys residues. The predicted chart is shown below.

[4] = tested on: thioglycolate-induced macrophages; assay: Macrophage viability by Annexin V/DAPI staining; type: cell-based; conditions: different concentrations, 16 hours, listed as AP-3-84
Experimental: (§1) FIGS. 1A-B. Novel Rb1 modulator AP-3-84 induces cell death specifically in macrophages. (FIG. 1A) Tumor PDAC cells and thioglycolate-induced macrophages were cultured with different concentrations of AP-3-84 Rb1 modulator for 16 hours with the following assessment of viability by Annexin V/DAPI staining. […] (FIG. 1B) Thioglycollate-induced macrophages were cultured with 10 uM AP-3-84 for 4 hours and gene expression changes were studied by RNA-Seq.

[5] = tested on: Tumor PDAC cells; assay: Tumor cell viability by Annexin V/DAPI staining; type: cell-based; conditions: different concentrations, 16 hours, listed as AP-3-84
Experimental: as §1

[6] = tested on: Thioglycollate-induced macrophages; assay: Gene expression changes by RNA-Seq; type: cell-based; conditions: 10 uM, 4 hours, listed as AP-3-84
Experimental: as §1

[7] = tested on: PDA T high cell line; assay: Orthotopic PDA T high pancreatic tumor model in B6 wild-type mice; type: in vivo; conditions: 7 daily treatments from day 4, tumors collected day 22, listed as AP-3-84
Experimental: (§2) (FIGS. 2A-B) B6 wild-type mice were orthotopically injected with PDA T high cell line into the pancreas. T high PDA cell line was previously generated by Dr. Stanger's lab (Upenn), this tumor cell line can induce some T cell infiltration opposite to T low PDA cell line (shown in FIGS. 4A-C). Mice were treated with 7 daily AP-3-84 or vehicle starting from day 4. On day 22 pancreatic tumors were collected and compared across two groups. […] (FIG. 2C) B6 wild-type mice were injected subcutaneously with PDA T high tumor cells and treated with AP-3-84 or vehicle as in FIGS. 2A-B. Tumor growth was measured until day 31. […] (FIG. 2D) Same experiment as in FIGS. 2A-B was conducted in NSG immunodeficient mice.
Statistical analysis of the data was conducted using unpaired Student t-test criteria with additional false discovery rate adjustment for multiple comparisons for gene expression analysis.

[8] = tested on: PDA T high tumor cells; assay: Subcutaneous PDA T high tumor model in B6 wild-type mice; type: in vivo; conditions: measured until day 31
Experimental: as §2

[9] = tested on: PDA T high cell line; assay: Orthotopic PDA T high tumor model in NSG immunodeficient mice; type: in vivo
Experimental: as §2

[10] = tested on: tumor-associated macrophages; assay: Flow cytometry of immune cells in orthotopic PDA T high model; type: in vivo, mice
Experimental: FIGS. 3A-B. AP-3-84 depletes tumor macrophages and re-shapes immune cell landscape. (FIGS. 3A-B) B6 wild-type mice were orthotopically injected with PDA T high cell line into the pancreas and treated with AP-3-84 or vehicle as in FIGS. 2A-D. Tumor cells on day 12 (FIG. 3A) or peritoneum cells on day 21 (FIG. 3B) were analyzed by flow cytometry. […] Significant effects on activation and differentiation of immune cells in tumor and periphery were also found (not shown).

[11] = tested on: PDA T low cell line; assay: PDA T low tumor model (orthotopic or subcutaneous) in B6 wild-type mice; type: in vivo
Experimental: FIGS. 4A-C. AP-3-84 renders more resistant PDA tumors with low T cell infiltration into immunotherapy responsive tumors. […] Statistical analysis of the data was conducted using unpaired Student t-test criteria with additional false discovery rate adjustment for multiple comparisons for gene expression analysis.

[12] = tested on: AML cell lines (THP-1, AML-193, Kasumi-1); assay: Cell death in AML cell lines (Annexin-V flow cytometry, Alamar blue); type: cell-based
Experimental: (§3) Additionally, the inventors obtained test results showing the compounds to be effective in models of AML. AML cell lines (THP-1, AML-193, Kasumi-1) were cultured at different cell concentration (75000/ml, 125,000/ml and 200,000/ml) and exposed to 5, 10, 15, 20 μM concentration of AP-3-84. Cell differentiation was induced by 100 ng/ml PMA over 24 hours. Nonhemopoietic cancer cells (ID8, PDAC) were analyzed after exposure to AP-3-84. Cell death outcomes were measured by Annexin-V using flowcytometry or viability measures by Alamar blue assay. Protein levels were measured by Western blots at intervals between 30 min and 6 hours after exposure to AP-3-84 for total Rb1, phosphorylated Rb1, ATF3, BIM, NOXA, BaK, Bax, cleaved PARP, cleaved Caspase-3. Cytoplasmic and mitochondrial lysates were examined. Confocal immunocytochemistry on Rb1 expression in nucleus versus cytoplasm was performed.

[13] = tested on: PMA differentiated THP1 cells; assay: Cell death in PMA differentiated THP-1 cells; type: cell-based; conditions: PMA treated THP-1 cells; listed as AP-3-84
Experimental: as §3

[14] = tested on: Nonhemopoietic cancer cells (ID8, PDAC); assay: Cell death in nonhemopoietic cancer cells; type: cell-based; conditions: listed as AP-3-84
Experimental: as §3

[15] = tested on: nonhemopoitic cancer cells; assay: Cell proliferation by CFSE dye dilution; type: cell-based; conditions: nonhemopoietic cancer cells
Description: FIG. 22A-22C. […] A. Graphs indicates the total percentage of cell death (annexin V+ and AnnexinV+Live-Dead+ cells) in PMA treated THP-1 cells. […] C. Histogram indicates cell proliferation, measured by CSFE dye dilution in presence of AP-3-84 and other inhibitors. Bar diagram indicates average MFI of CFSE dye in presence of different inhibitors.

[16] = tested on: THP-1 cell line; assay: Western blots of ER stress and apoptosis proteins; type: cell-based; conditions: Western blot, listed as AP-3-84
Experimental: as §3

Structure (SMILES): O=c1sn(-c2cccc3ccccc23)c(=O)n1Cc1ccccc1 [Tideglusib, reference compound]
IC50 [1]: 0.126 µM
Inhibition of AP-8-239 binding Rb-NT (380-785) Top [1]: 86.9%
IC50 [2]: 0.04 µM
Inhibition of HDAC1 binding Rb-NT (380-785) Top [2]: 77%

IC50 [1]: 0.445 µM
Inhibition of AP-8-239 binding Rb-NT (380-785) Top [1]: 90.1%
IC50 [2]: 0.089 µM
Inhibition of HDAC1 binding Rb-NT (380-785) Top [2]: 75%
# of CH2CONH2 [3]: 2
Cys residues masked from reacting with the iodoacetamide [3]: 6
Structure (SMILES): COc1cccc(-n2sc(=O)n(C)c2=O)c1 [AP-03-084]
macrophage cell death [4]: can induce cell death of TAMs and thioglycolate-induced macrophages; also recorded: induced macrophage cell death in dose-dependent manner
PDA tumor cell viability / death of other cell types [5]: not of the other cell types (neither tumor nor T cells); also recorded: didn't affect PDA tumor cell viability
gene expression changes [6]: induction of oxidative and ER stress programs with a clear activation of p53-dependent genes and caspases; also recorded: induced strong unfolded protein and oxidative stress response with the induction of apoptosis pathway and p53 signaling
pancreatic tumor growth [7]: significant reduction of tumor growth; also recorded: significantly reduced the tumor growth in mice
tumor growth [8]: Significant reduction of tumor growth
tumor growth [9]: No effect of AP-3-84 treatment was observed
immune cell composition in the peritoneum ([10]; peritoneum cells on day 21, flow cytometry): re-shapes the immune cell composition in the peritoneum
tumor-associated macrophages in tumors ([10]; tumor cells on day 12, flow cytometry, listed as AP-3-84): depleting macrophages and inducing T cell infiltration; also recorded: effectively depletes tumor-associated macrophages in tumors
tumor growth, AP-3-84 treatment alone ([11]; orthotopic and subcutaneous models): didn't dramatically affect the tumor growth
tumor growth, combined with Immunotherapy ([11]; with anti-PD1/anti-CTLA4/anti-CD40, listed as AP-3-84): decrease tumor burden in T-low-PDA model; also recorded: effectively reduced the tumor growth compared to monotherapies
cells undergoing cell death ([12]; 5 minute exposure, 24 hours later): 70-80%
concentration at which induction of cell death was observed ([12]; AML cells, tested at 5, 10, 15, 20 μM): ≥ 10 µM
cell death in AML cell lines ([12]; THP-1, AML-193, Kasumi-1, annexin V+ and AnnexinV+Live-Dead+ cells): induced cell death in different AML cell lines
cell death [13]: no cell death was induced; also recorded: minor effect on PMA treated THP-1 cells
cell death [14]: no cell death was induced; also recorded: does not induce cell death in ID8 cells
cell division rate [15]: No effect in cell division rate
apoptosis proteins (NOXA, BIM, cleaved-PARP, cleaved Caspase-3) ([16]; 10 uM in FIG. 23A): increased mitochondrial protein levels of NOXA, BIM, cleaved-PARP, and cleaved Caspase-3; also recorded: induction of Cleaved-PARP, Noxa and Cleaved-caspase 3
Bax, Bak, Bcl-2, Bcl-xl levels [16]: Bax and Bak levels were unchanged; also recorded: Bax Bcl-2 and Bcl-xl does not get altered
ER-stress signals (ATF4, ATF3, peIF2a) [16]: induced higher levels of ER-stress signals (higher ATF4, ATF3); also recorded: Induction of ATF4, ATF3 and peIF2a

IC50 [1]: 2.92 µM
Inhibition of AP-8-239 binding Rb-NT (380-785) Top [1]: 83.8%
IC50 [2]: 12.7 µM
Inhibition of HDAC1 binding Rb-NT (380-785) Top [2]: 69%
Structure (SMILES): C=CC(=O)N(C)C(=O)Nc1cccc(OC)c1 [SA-01-048]

IC50 [1]: 0.054 µM
Inhibition of AP-8-239 binding Rb-NT (380-785) Top [1]: 90.6%
IC50 [2]: 0.083 µM
Inhibition of HDAC1 binding Rb-NT (380-785) Top [2]: 71%
Structure (SMILES): Cn1c(=O)sn(-c2cccc(OCCCNC(=O)c3ccccc3)c2)c1=O [AP-08-238]

IC50 [1]: 0.362 µM
Inhibition of AP-8-239 binding Rb-NT (380-785) Top [1]: 83.3%
IC50 [2]: 0.077 µM
Inhibition of HDAC1 binding Rb-NT (380-785) Top [2]: 72%
Structure (SMILES): Cn1c(=O)sn(-c2cccc(OCCCN)c2)c1=O [AP-08-231]

# of CH2CONH2 [3]: 6
Cys residues masked from reacting with the iodoacetamide [3]: 2
Structure (SMILES): Cn1c(=O)sn(-c2cccc(OCCCNC(=S)Nc3ccc4c(c3)C(=O)OC43c4ccc(O)cc4Oc4cc(O)ccc43)c2)c1=O [AP-08-239]

IC50 [1]: 0.022 µM
Inhibition of AP-8-239 binding Rb-NT (380-785) Top [1]: 85.9%
IC50 [2]: 0.171 µM
Inhibition of HDAC1 binding Rb-NT (380-785) Top [2]: 72%
Structure (SMILES): Cn1c(=O)sn(-c2cccc(OCCCNC(=O)CC[C@@H](NC(=O)c3ccc(NCCc4cc5c(=O)[nH]c(N)nc5[nH]4)cc3)C(=O)O)c2)c1=O [AP-08-237]
